Literature values, collected in patent publication US12357667B2, “Nutraceutical formulations to prevent, treat, and inhibit excess cytokines, SARS-CoV-2 spike proteins, and mRNA vaccine spike proteins” (priority 2021, dated 2025).
Counter-ions that a name gives are not always drawn.

Tests used:
[1] = system: respiratory syncytial virus; details: respiratory syncytial virus-infected mice
[2] = system: multiple strains of SARS-CoV-2, including Delta and Omicron
[3] = target: T1, 3-chymotrypsin-like protease (3CLpro) (Severe acute respiratory syndrome coronavirus 2, UniProt P0DTD1)
T1 construct: 3-chymotrypsin-like protease (3CLpro)

[4] = target: T2, papain-like protease (PLpro) (Severe acute respiratory syndrome coronavirus 2, UniProt P0DTD1)
T2 construct: papain-like protease (PLpro)

[5] = not given; remark: listed apart in the source
SARS-CoV-2 viral S-spike = SARS-CoV-2 viral S-spike (Severe acute respiratory syndrome coronavirus 2, UniProt P0DTC2); details: supercomputer modeling; out of 20 top performers
SARS-CoV-2 [6] = system: SARS-CoV-2
[7] = system: human influenza viruses (H5N1, Vietnam/VN1203 strain)
pseudotyped SARS-CoV-2 = details: VeroE6/TMPRSS2 cells
influenza = details: 6-month preventive administration
RBD and ACE2 = RBD and ACE2 (Severe acute respiratory syndrome coronavirus 2, UniProt P0DTC2)
SARS-CoV-2 [8] = details: structure-based molecular docking
blood coagulation = details: in vitro coagulation assays
[9] = system: glutamate-cysteine ligase; set-up: dose or concentration left out as unconfirmed; details: zinc, ARPE-19 cells
SARS-CoV-2 [10] = system: SARS-CoV-2; remark: listed apart in the source
[11] = 6 mg/day for 4 weeks, active young men
[12] = hyperlipidemic rats
Furin = Furin (Homo sapiens, UniProt P09958)
SARS-CoV-2 [13] = details: lung epithelial cells
SARS-CoV-2 [14] = details: patients previously taking CBD relative to matched pairs or the general population
SARS-CoV-2 [15] = system: SARS-CoV-2; remark: listed apart in the source
[16] = system: mouse hepatitis virus (MHV); details: A549-MHVR cells, non-toxic conditions; read-out: EC50, suppression of MHV replication
[17] = system: pseudovirus expressing the SARS-CoV-2 spike protein
CB1 = CB1 (Homo sapiens, UniProt P21554)
[18] = target: cannabinoid G-protein coupled receptor CB2 (Homo sapiens, UniProt P34972)
main proteases (6Y2E) = target: T3, main proteases (6Y2E) (Severe acute respiratory syndrome coronavirus 2, UniProt P0DTD1); details: 6Y2E active sites
T3 construct: main proteases (6LU7 and 6Y2E)

Sequence of Furin (P09958 108-794, species assumed): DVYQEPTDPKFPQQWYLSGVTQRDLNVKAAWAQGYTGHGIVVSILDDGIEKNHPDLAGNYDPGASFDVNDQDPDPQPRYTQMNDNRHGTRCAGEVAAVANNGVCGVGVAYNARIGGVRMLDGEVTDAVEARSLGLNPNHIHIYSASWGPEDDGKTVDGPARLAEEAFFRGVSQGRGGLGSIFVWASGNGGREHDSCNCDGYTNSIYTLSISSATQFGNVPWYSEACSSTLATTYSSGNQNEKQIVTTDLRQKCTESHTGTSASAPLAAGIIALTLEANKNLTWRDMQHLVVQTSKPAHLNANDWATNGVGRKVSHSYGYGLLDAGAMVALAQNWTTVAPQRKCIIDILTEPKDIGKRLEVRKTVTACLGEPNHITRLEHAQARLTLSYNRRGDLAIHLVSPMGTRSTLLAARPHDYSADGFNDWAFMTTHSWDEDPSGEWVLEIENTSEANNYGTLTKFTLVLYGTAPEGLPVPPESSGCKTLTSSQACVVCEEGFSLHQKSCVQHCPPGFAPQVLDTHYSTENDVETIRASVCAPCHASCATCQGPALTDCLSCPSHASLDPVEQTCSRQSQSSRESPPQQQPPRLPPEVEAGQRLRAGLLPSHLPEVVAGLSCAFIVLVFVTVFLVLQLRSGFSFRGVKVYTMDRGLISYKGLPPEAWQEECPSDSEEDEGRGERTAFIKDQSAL
Sequence of CB1 (P21554 whole entry, species assumed): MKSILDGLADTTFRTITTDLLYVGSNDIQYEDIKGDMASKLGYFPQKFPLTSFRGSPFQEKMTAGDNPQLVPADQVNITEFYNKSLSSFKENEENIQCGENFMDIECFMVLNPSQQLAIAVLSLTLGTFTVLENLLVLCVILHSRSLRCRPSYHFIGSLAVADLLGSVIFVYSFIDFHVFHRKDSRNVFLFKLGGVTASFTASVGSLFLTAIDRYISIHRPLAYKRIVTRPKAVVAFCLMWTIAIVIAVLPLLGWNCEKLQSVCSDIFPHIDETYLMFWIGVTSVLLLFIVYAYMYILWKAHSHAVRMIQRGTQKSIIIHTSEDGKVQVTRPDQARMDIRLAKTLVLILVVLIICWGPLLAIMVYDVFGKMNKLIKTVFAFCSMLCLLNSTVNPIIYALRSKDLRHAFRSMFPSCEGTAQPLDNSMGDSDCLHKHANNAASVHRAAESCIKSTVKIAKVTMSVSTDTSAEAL
Sequence of cannabinoid G-protein coupled receptor CB2 (P34972 whole entry): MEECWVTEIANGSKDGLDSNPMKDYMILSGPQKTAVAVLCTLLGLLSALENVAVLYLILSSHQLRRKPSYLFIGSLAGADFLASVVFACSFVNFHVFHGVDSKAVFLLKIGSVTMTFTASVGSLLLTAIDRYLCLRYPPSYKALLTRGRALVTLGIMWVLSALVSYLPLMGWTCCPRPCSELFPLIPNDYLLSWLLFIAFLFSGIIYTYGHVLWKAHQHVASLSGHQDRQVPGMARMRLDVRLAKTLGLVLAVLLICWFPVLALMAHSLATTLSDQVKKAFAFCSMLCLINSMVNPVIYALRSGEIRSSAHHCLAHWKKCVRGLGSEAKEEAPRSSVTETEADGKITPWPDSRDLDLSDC

C[S+]([O-])CCCCN=C=S (stereo not shown) [SFN, Sulforaphane]
lung viral replication and virus-induced inflammation [1]: significantly limited | antiviral activity (HCoV-OC43): potent antiviral activity | toxicity in cell culture [2]: limited toxicity | antiviral activity ([2]; multiple strains of SARS-CoV-2, including Delta and Omicron): potent antiviral activity

O=c1c(O)c(-c2ccc(O)c(O)c2)oc2cc(O)cc(O)c12 [Quercetin]
docking binding energy [3]: -6.25 kcal/mol | docking binding energy [4]: -4.62 kcal/mol | solubility: low solubility | oral absorption / systemic bioavailability [5]: reduced oral absorption | rank for inhibition of SARS-CoV-2 viral S-spike binding to cells (SARS-CoV-2 viral S-spike): fifth

COc1cc(/C=C/C(=O)CC(=O)/C=C/c2ccc(O)c(OC)c2)ccc1O [curcumin, diferuloylmethane]
oral absorption / systemic bioavailability [5]: minimal absorption

bromelain
toxicity (PGE-2): very low toxicity | effect on PGE-2 inhibition (PGE-2; compared with prednisone and aspirin): exceeds that of prednisone and aspirin | infection of VeroE6 cells by SARS-CoV-2 (SARS-CoV-2 [6]): inhibits infection

CC(=O)N[C@@H](CS)C(=O)O [N-acetylcysteine, reference compound]
inhibition of H5N1 replication [7]: dose dependent manner | production of pro-inflammatory cytokines (IL-8, CXCL10, CCL5 and IL-6) [7]: reduced the production | pseudotyped viral infection (pseudotyped SARS-CoV-2): inhibited | spike-mediated cell-cell fusion (SARS-CoV-2 spike): inhibited | incidence of clinically apparent influenza and influenza-like episodes (influenza): significantly reduced | in vitro binding of RBD and ACE2 (RBD and ACE2): inhibited

Cc1c(-c2cnccn2)ssc1=S [oltipraz]
ACE2 levels (ACE2): reduces ACE2 levels

N[C@@H](CCC(=O)N[C@@H](CS)C(=O)NCC(=O)O)C(=O)O [glutathione, γ-glutamyl cysteinyl glycine]
pseudotyped viral infection (pseudotyped SARS-CoV-2): inhibited | spike-mediated cell-cell fusion (SARS-CoV-2 spike): inhibited | oral absorption / systemic bioavailability [5]: poor | in vitro binding of RBD and ACE2 (RBD and ACE2): inhibited

CCCCCc1cc(O)c(C/C=C(\C)CCC=C(C)C)c(O)c1 [CBG, Cannabigerol]
levels of DNA damage proteins (astrocytes): decreased levels | levels of interleukin-6 (IL-6) and lactate dehydrogenase (LDH) (astrocytes): attenuated levels

CN1c2c(nc(N)[nH]c2=O)NCC1CNc1ccc(C(=O)N[C@@H](CCC(=O)O)C(=O)O)cc1 (stereo partly shown) [5-methyl tetrahydrofolic acid]
binding affinities against the SARS-CoV-2 (SARS-CoV-2 [8]): strong and stable binding affinities

C=C(C)[C@@H]1CCC(C)=C[C@H]1c1c(O)cc(CCC)cc1O [CBDV, cannabidivarin, reference compound]
levels of interleukin-6 (IL-6) and lactate dehydrogenase (LDH) (astrocytes): attenuated levels

Nc1nc2c(c(=O)[nH]1)NC(CNc1ccc(C(=O)N[C@@H](CCC(=O)O)C(=O)O)cc1)CN2 (stereo partly shown) [tetrahydrofolic acid]
binding affinities against the SARS-CoV-2 (SARS-CoV-2 [8]): strong and stable binding affinities

CC1=CC(=O)C(C(C)C)=CC1=O [Thymoquinone]
anticoagulant activity (blood coagulation): possesses anticoagulant activity

[Zn] [zinc]
mRNA levels of glutamate-cysteine ligase [9]: upregulates

COC(=O)/C=C/C(=O)OC [dimethyl fumarate]
replication of SARS-CoV-2 in vitro (SARS-CoV-2 [10]): inhibited replication

CC1=C(/C=C/C(C)=C/C=C/C(C)=C/C=C/C=C(C)/C=C/C=C(C)/C=C/C2=C(C)C(=O)[C@@H](O)CC2(C)C)C(C)(C)C[C@H](O)C1=O [Astaxanthin]
Glutathione higher compared with placebo [11]: ~7% | oxidative stress markers or substrate utilization during exercise [11]: did not affect | Glutathione, whole blood ([11]; fasting blood sample): 1,233±133 μM | coagulation, fibrinolytic activity and platelet aggregation [12]: inhibit coagulation, increase fibrinolytic activity and reduce platelet aggregation

Nc1nc2ncc(CNc3ccc(C(=O)N[C@@H](CCC(=O)O)C(=O)O)cc3)nc2c(=O)[nH]1 [folic acid]
binding affinities against the SARS-CoV-2 (SARS-CoV-2 [8]): strong and stable binding affinities | furin inhibition (Furin): inhibit furin

C=C(C)[C@@H]1CCC(CO)=C[C@H]1c1c(O)cc(CCCCC)cc1O [7-0H-CBD, 7-OH-CBD]
block of SARS-CoV-2 replication (SARS-CoV-2 [13]): potently block

C=C(C)[C@@H]1CCC(C)=C[C@H]1c1c(O)cc(CCCCC)cc1O [CBD, Cannabidiol]
block of SARS-CoV-2 replication (SARS-CoV-2 [13]): potently block | IL-1β, IL-6, TNF and IL-18 (Caco-2 cells; ELISA, CBD 10-9-10-7 M): parallel inhibition | transepithelial electrical resistance (TEER) (Caco-2 cells; following CBD treatment): restoration | proinflammatory markers triggered by Spike Protein (TLR-4, ACE-2, RhoA-GTPase, NLRP3, Caspase-1) (Caco-2 cells; immunoblot, CBD 10-9-10-7 M): reduce all the analyzed proinflammatory markers | SARS-CoV-2 infection incidence (SARS-CoV-2 [14]): significantly lower | inhibition of SARS-CoV-2 replication (SARS-CoV-2 [15]; Vero E6 monkey kidney epithelial cells): inhibited SARS-CoV-2 replication | toxicity (SARS-CoV-2 [15]; at the effective doses): No toxicity | EC50 [16]: ~5 µM

CCCCCc1cc(O)c(C/C=C(\C)CCC=C(C)C)c(O)c1C(=O)O [cannabigerolic acid]
entry of live SARS-CoV-2 into cells (live SARS-CoV-2): prevented entry | infection of human epithelial cells by pseudovirus [17]: prevented infection

C=C(C)[C@@H]1CCC(C)=C[C@H]1c1c(O)cc(CCCCC)c(C(=O)O)c1O [cannabidiolic acid]
entry of live SARS-CoV-2 into cells (live SARS-CoV-2): prevented entry | infection of human epithelial cells by pseudovirus [17]: prevented infection

CCCCCc1cc(O)c2c(c1)OC(C)(C)c1ccc(C)cc1-2 [Cannabinol]
affinity for CB1 (CB1): minimal affinity | binding to CB2 [18]: preferentially binds

CC1(C)CC[C@]2(C(=O)O)CC[C@]3(C)C(=CC[C@@H]4[C@@]5(C)CC[C@H](O)[C@@](C)(CO)[C@@H]5CC[C@]43C)[C@@H]2C1 [hederagenin]
docking binding score with 6Y2E (main proteases (6Y2E)): less than saquinavir

C=C(CC(=O)OCCCCCCCC)C(=O)O [4-octyl-itaconate]
replication of SARS-CoV-2 in vitro (SARS-CoV-2 [10]): inhibited replication
